Reference: patent US20240084237A1, “A DEVICE HAVING A SUPPORT STRUCTURE FOR CREATING A HOLLOW, THREE-DIMENSIONAL ORGANOIDS AND CULTURES” (The Trustees of Indiana University, priority 2021, published 2024)

Tested on: iMG incorporated into the hollow organoid culture
Experiment: neural inflammation model: iMG incorporated into hollow (tubular) brain organoid culture, drug treatment
Format: cell-based, human
Conditions: for response of iMG incorporated into the hollow organoid culture to external stimulation: recapitulating the in vivo phenotype and functions during neural inflammation, LPS 100 ng/mL 24 hours followed by ATP 2 mM 30 minutes, DAMGO 100 nM 24 hours
Description: To differentiate WA01 cells into microglia, WA01 cells were plated onto Matrigel (Corning) coated 6-well plate at a density of 30-40 colonies per well. The WA01 cells were then differentiated into hematopoietic progenitor cells (HPC) using STEMdiff hematopoietic kit (Stemcell Technologies). The differentiated WA01 derived HPC was then further differentiated into induced microglia (iMG) cells using STEMdiff Microglia Differentiation kit (Stemcell Technologies).
To treat microglia cultured in well plates or microglia embedded in hFO, lipopolysaccharide (LPS) (Sigma) is dosed at 100 ng/mL for 24 hours followed by Adenosine 5′-triphosphate (ATP) (Sigma) at a concentration of 2 mM for 30 minutes. Similarly, DAMGO was given at a concentration of 100 nM for 24 hours. For LY-2828360 (Cayman Chemicals) treatment, microglia treated with DAMGO for 24 hours was refreshed with a medium containing 100 nM LY-2828360 for an additional 24 hours.
To visualize inflammasome activation inside microglia cells, we analyzed NLRP3/ASC colocalization by proximity ligation assay (PLA). Samples were subject to NLRP3/ASC staining following by colocalization PLA using the Duolink in situ red kit (Sigma). After the PLA labeling, samples were then additionally labeled by Iba1/MAP2 before coverslipped with Prolong gold anti-fade DAPI mounting medium (Thermo Fisher) and visualized under an inverted fluorescence microscope (Olympus IX-83).
Conditioned medium of 24 hours (total volume 500 μL) from control conditions or drug-treated conditions were collected from microglia cultured in 24 well plates or incorporated inside tubular organoids. The medium was centrifuged at 2,000 g for 10 minutes to remove cell debris. 400 μL of supernatant was then aspirated and used for ELISA assays. Samples were assayed using ELISA plates for IL-1β (Tribioscience), IL-18 (Tribioscience), and TNF-α (Abcam). Each sample was tested in triplicates and read at 450 nm for absorbance.

Row | Molecule | response of iMG incorporated into the hollow organoid culture to external stimulation | response of the neural inflammation model to treatment (therapeutics screening) (100 nM for additional 24 hours after DAMGO 24 hours)
1 | C[C@@H](NC(=O)[C@@H](N)Cc1ccc(O)cc1)C(=O)NCC(=O)N(C)[C@@H](Cc1ccccc1)C(=O)NCCO [DAMGO] | can respond | –
2 | Cc1nc(N2CCN(C)CC2)c2nc(-c3ccccc3Cl)n(C3CCOCC3)c2n1 [LY282860] | – | evident responses
3 | lipopolysaccharide [LPS] | can respond | –
